Experimental data: patent publication US20230059022A1, “PRUSSIAN BLUE ZnO CARBON NANOTUBE COMPOSITE FOR MEASURING HYDROGEN PEROXIDE IN CANCER CELLS” (Middle Tennessee State University, priority 2020, published 2023)
“And” between values parts separate entries of the source, which are not always exact repeats. Equal entries are not always repeated.

Experiments:
Assay type in all cases: cell-based
BT20 cancer cells [1] = experiment: SAM CA (chronoamperometry with standard addition) of hydrogen peroxide release from BT20 cells
Method: (§1) BT20 and 4T1 cells were purchased from American Type Culture Collection (ATCC). Both cell lines were maintained in RPMI-1640 medium (Sigma-Aldrich) with 10% Fetal Bovine Serum (FBS) (Gibco) at 37° C. with 5% CO2. The medium was renewed every two days. Well-grown BT20 cells in logarithmic phase were digested by 0.25% (w/v) Trypsin (Fisher Scientific) from the original culture flask and mixed well before being seeded on a 96-well cell culture plate (Denville Scientific) with a density of 5×10^4 cells/mL and incubated with the same full medium at 37° C. with 5% CO2 for 24 h. Cells were then treated with 100 μL of 50 μM doxonibicin (Dox) (Sigma-Aldrich). […]
(§2) Electrochemical activity of the PB/ZnO/COOH-MWNTs was studied using cyclic voltammetry (CV) and chronoamperometry (CA) using AfterMath™ software ver 1.2.5658 and a WaveNano™ potentiostat (Pine Research Instrument Co., Raleigh, N.C., USA). […] The concentrations of hydrogen peroxide in BT20 cancer cells were measured chronoamperometrically, employing the standard addition method (CA SAM). Samples were measured by standard additions of hydrogen peroxide in increasing order to create the calibration curve needed to determine the unknown hydrogen peroxide concentration in the cancer cells. BT20 and 4T1 cancer cells were cultured and the concentration of hydrogen peroxide in the cancer cells analyzed using this sensor. […]

4T1 cancer cells [2] = experiment: SAM CA (chronoamperometry with standard addition) of hydrogen peroxide release from 4T1 cells
Method: as §1, §2

BT20 cancer cells [3] = experiment: ELISA (Amplex Red hydrogen peroxide release assay) of BT20 cells; details: single replicate wells
Method: BT20 and 4T1 cells were purchased from American Type Culture Collection (ATCC). Both cell lines were maintained in RPMI-1640 medium (Sigma-Aldrich) with 10% Fetal Bovine Serum (FBS) (Gibco) at 37° C. with 5% CO2. The medium was renewed every two days. Well-grown BT20 cells in logarithmic phase were digested by 0.25% (w/v) Trypsin (Fisher Scientific) from the original culture flask and mixed well before being seeded on a 96-well cell culture plate (Denville Scientific) with a density of 5×10^4 cells/mL and incubated with the same full medium at 37° C. with 5% CO2 for 24 h. Cells were then treated with 100 μL of 50 μM doxonibicin (Dox) (Sigma-Aldrich). Cells treated with 100 μL of vehicle (RPMI-1640 medium) only served as a control. The Dox group and control group each had eight replicate wells. After 24 h of incubation, 50 μL of the medium was collected from each well and proceeded for hydrogen peroxide determination.
The hydrogen peroxide release assay was carried on using Amplex™ Red Hydrogen Peroxide/Peroxidase Assay Kit (Invitrogen) according to the instruction. […] After incubation at room temperature in the dark for 30 min, the absorbance of each well at 560 nm of was measured with a CLARIOstar™ microplate reader (BMG Labtech). The concentration of hydrogen peroxide in the sample was calculated according to the standard curve. […]

4T1 cancer cells [4] = experiment: ELISA (Amplex Red hydrogen peroxide release assay) of 4T1 cells

Compound: COc1cccc2c1C(=O)c1c(O)c3c(c(O)c1C2=O)C[C@@](O)(C(=O)CO)C[C@@H]3O[C@H]1C[C@H](N)[C@H](O)[C@H](C)O1 [Dox, doxonibicin]
- hydrogen peroxide concentration in Dox-treated BT20 cancer cells (mean) (BT20 cancer cells [1]; 48 h Dox-treated BT20 cells, CA SAM, n=6): 16.0 ± 1.4 µM
- H2O2 from Dox-treated BT20 cancer cells, SAM CA (BT20 cancer cells [1]; BT20 cells, Dox treated, single replicates, SAM CA): 15.1 μM and 15.88 μM (2×) and 17.47 μM (2×) and 14.42 μM
- H2O2 from Dox treated 4T1 cancer cells, SAM CA (4T1 cancer cells [2]; 4T1 cells, Dox treated, single replicates, SAM CA): 14 µM and 15.6 µM and 16 µM
- concentration of hydrogen peroxide released in Dox-treated 4T1 cancer cells (mean) (4T1 cancer cells [2]; Dox-treated 4T1 cells, CA SAM, n=3, p=0.0182 vs untreated): 15.2 µM
- H2O2 from Dox-treated BT20 cancer cells, ELISA results (BT20 cancer cells [3]): 5.0152 μM and 5.3182 μM (2×) and 5.6212 μM (2×) and 6.0758 μM and 6.9848 μM and 4.4091 μM
- H2O2 from Dox treated 4T1 cancer cells, ELISA results (4T1 cancer cells [4]; Dox treated, single replicate wells): 1.9605 µM and 2.0921 µM and 2.4868 µM and 2.75 µM and 2.8816 µM and 2.6184 µM and 3.0132 µM and 1.8289 µM
- difference in hydrogen peroxide between Dox-treated and untreated 4T1 cells by ELISA (4T1 cancer cells [4]; p=0.8932): no statistical difference
